Source: patent US8252832B2, “Kinesin inhibitors as cancer therapeutics” (Novartis AG, priority 2007, dated 2012)

What was measured:
[1] = molecular target: T1, motor domain of human KSP (Eg 5, KNSL1) (Homo sapiens, UniProt P52732); assay: Assay for determining KSP activity (microtubule/KSP ATPase, Biomol Green); type: biochemical; details: read-out: In vitro activity (IC-50 - nm)
T1 construct: KSP motor protein (i.e., the KSP motor domain); made in house
T1 sequence (P52732 18-359 limits assumed): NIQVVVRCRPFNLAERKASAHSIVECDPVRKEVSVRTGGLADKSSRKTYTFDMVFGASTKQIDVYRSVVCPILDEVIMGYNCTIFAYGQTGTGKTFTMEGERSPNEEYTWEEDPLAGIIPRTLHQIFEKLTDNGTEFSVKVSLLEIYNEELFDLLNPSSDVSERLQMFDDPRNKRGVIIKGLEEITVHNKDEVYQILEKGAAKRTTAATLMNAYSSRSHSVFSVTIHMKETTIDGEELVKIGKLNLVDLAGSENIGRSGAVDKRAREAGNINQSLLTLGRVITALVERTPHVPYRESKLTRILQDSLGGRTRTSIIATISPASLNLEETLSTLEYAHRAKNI
Experimental: Purified microtubules obtained from bovine brain were purchased from Cytoskeleton Inc. (Denver, Colo., USA). The motor domain of human KSP (Eg 5, KNSL1) was cloned, expressed, and purified to greater than 95% homogeneity. Biomol Green™ was purchased from Affinity Research Products Ltd. (Matford Court, Exeter, Devon, United Kingdom). Microtubules and KSP motor protein (i.e., the KSP motor domain) were diluted in assay buffer (20 mM Tris-HCl (pH 7.5), 1 mM MgCl2, 10 mM DTT and 0.25 mg/mL BSA) to a final concentration of 35 μg/mL microtubules and 45 nM KSP. The microtubule/KSP mixture was then pre-incubated at 37° C. for 10 min to promote the binding of KSP to microtubules.
To each well of the testing plate (384-well plate) containing 1.25 μL of inhibitor or test compound in DMSO (or DMSO only, in the case of controls) were added 25 μL of ATP solution (ATP diluted to a concentration of 300 μM in assay buffer) and 25 μL of the above-described microtubule/KSP solution. The plates were incubated at RT for 1 hour. Following incubation, 65 μL of Biomol Green™ (a malachite green-based dye that detects the release of inorganic phosphate) was added to each well. The plates were incubated for an additional 5-10 minutes then the absorbance at 630 nm was determined using a Victor II plate reader. The amount of absorbance at 630 nm corresponded to the amount of KSP activity in the samples. The IC50 of each inhibitor or test compound was then determined based on the decrease in absorbance at 630 nm at each concentration, via nonlinear regression using either XLFit for Excel or Prism data analysis software by GraphPad Software Inc.

[2] = system: primary blast cells from AML patients; assay: Cell cycle analysis using propidium iodide staining, AML blasts; type: cell-based, human; details: 0.2 and 2 nM
Experimental: Primary blast cells from AML patients were tested for sensitivity to compound IIa as shown below. Frozen AML blasts from peripheral blood were obtained from AllCell LLC. (Emeryville, Calif.). Three frozen vials containing ˜1×10^7 PBMCs were purchased. Peripheral blood mononuclear cells (PBMCs) from three newly diagnosed AML patients with a high percentage of blasts (#06-188, 80%; #06-366, 88%; #06-503, 73%) were cultured for several weeks and treated with the KSP inhibitors. The vials were rapidly thawed and the cells were cultured in Iscove's DMEM supplemented with 10% FBS and the following cytokines all at 10 ng/ml: GM-CSF, G-CSF, SCF, IL-3, and IL-6 (all from R&D Systems). Three assays were performed on the cells as follows: • CellTiter-Glo® assay on AML blasts. PBMCs containing AML blasts were seeded in 96-well plates (5000/well) and treated with various concentrations of the compound IIa (10 pM to 10 nM) for 48 hours before cells survival was measured as described above. GI50 values (nM) were calculated as for cell lines. • Cell cycle analysis using propidium iodide staining. […] The DNA content of the fixed and stained cells was analyzed by the BD FACSCalibur flow cytometer using the CellQuest software. • Colony formation assay in methylcellulose containing medium. […] Colonies were counted under a microscope after 2 weeks. […]

CC(C)(C)[C@H](c1nc(-c2cc(F)ccc2F)cn1Cc1ccccc1)N(CC[C@H](N)CF)C(=O)CO [Compound IIa]
IC50 [1]: 0.8 nM
cell cycle profile, 4N population ([2]; sample #06-366, 24 hours): increase in the number of cells arrested in mitosis
cell cycle profile, <2N population ([2]; sample #06-366, 48 hours): increase in the number of dying cells
